In one assay the target is Trypsin (Homo sapiens, UniProt P07477+P07478+P35030). Put plainly: Inhibition of trypsin. Type of assay: protein assay.
A short description of assay [1]: Inhibition of elastase. More on the design: species or system Homo sapiens. As to conditions: read-out: Ki app.
A further assay deals with Coagulation factor X (Homo sapiens, UniProt P00742). The assay is described as follows: Inhibition of factor 10a. As to conditions: read-out: Ki app.
The target in a further assay is Plasminogen (Homo sapiens, UniProt P00747). The assay is described as follows: Inhibition of plasmin. The following applies: read-out: Ki app.
The target in the next assay is Coagulation factor XI (Homo sapiens, UniProt P03951). Put plainly: Inhibition of factor 11a. The following applies: read-out: Ki app.
In the next assay the target is Coagulation factor IX (Homo sapiens, UniProt P00740). Put plainly: Inhibition of factor 9a. As to conditions: read-out: Ki app.
The target of assay [2] is Urokinase-type plasminogen activator (Homo sapiens, UniProt P00749). Put plainly: Inhibition of urokinase. As to conditions: read-out: Ki app.
The target in another assay is Plasma kallikrein (Homo sapiens, UniProt P03952). The assay is described as follows: Inhibition of kallikrein. The following applies: read-out: Ki app.
A further assay deals with T1, Granzyme K (Homo sapiens, UniProt P49863).
T1 sequence (P49863 whole entry): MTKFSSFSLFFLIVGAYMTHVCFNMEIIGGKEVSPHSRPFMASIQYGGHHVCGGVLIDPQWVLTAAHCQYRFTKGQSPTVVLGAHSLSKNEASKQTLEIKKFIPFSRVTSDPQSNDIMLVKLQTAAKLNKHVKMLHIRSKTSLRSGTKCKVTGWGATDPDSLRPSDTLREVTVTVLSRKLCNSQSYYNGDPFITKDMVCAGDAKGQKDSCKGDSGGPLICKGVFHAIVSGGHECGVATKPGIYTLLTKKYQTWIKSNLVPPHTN
The assay is described as follows: Inhibition of granzyme K. As to conditions: read-out: Ki app.

A further assay concerns the target T2, Coagulation factor VII (Homo sapiens, UniProt P08709).
T2 sequence (P08709 whole entry): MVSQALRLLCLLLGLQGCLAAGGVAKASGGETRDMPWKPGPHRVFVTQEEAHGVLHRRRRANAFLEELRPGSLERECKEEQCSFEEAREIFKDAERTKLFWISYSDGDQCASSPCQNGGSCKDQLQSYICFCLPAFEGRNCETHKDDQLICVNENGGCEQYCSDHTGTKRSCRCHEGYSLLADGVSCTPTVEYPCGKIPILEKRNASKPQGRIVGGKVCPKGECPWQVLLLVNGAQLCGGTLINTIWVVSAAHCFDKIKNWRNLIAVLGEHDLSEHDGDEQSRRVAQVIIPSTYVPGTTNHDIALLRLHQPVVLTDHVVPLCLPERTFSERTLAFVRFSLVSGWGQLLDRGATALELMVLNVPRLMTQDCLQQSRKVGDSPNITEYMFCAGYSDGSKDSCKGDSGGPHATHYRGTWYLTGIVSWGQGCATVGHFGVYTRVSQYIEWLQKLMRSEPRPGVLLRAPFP
The assay is described as follows: Inhibition of factor 7a. As to conditions: read-out: Ki app.

In another assay the target is Chymotrypsinogen B (Homo sapiens, UniProt P17538). The assay is described as follows: Inhibition of chymotrypsin. As to conditions: read-out: Ki app.
Another assay concerns the target T3, Chymase (Homo sapiens, UniProt P23946).
T3 sequence (P23946 whole entry): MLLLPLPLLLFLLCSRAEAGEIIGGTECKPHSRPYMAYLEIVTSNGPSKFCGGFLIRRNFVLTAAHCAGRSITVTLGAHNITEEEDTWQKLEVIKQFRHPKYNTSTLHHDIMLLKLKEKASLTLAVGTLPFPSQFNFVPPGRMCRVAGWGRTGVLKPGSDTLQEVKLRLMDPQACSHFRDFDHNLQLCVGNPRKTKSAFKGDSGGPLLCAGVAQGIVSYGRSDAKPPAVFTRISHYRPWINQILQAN
The assay is described as follows: Inhibition of chymase. As to conditions: read-out: Ki app.

In the next assay the target is T4, Cathepsin G (Homo sapiens, UniProt P08311).
T4 sequence (P08311 whole entry): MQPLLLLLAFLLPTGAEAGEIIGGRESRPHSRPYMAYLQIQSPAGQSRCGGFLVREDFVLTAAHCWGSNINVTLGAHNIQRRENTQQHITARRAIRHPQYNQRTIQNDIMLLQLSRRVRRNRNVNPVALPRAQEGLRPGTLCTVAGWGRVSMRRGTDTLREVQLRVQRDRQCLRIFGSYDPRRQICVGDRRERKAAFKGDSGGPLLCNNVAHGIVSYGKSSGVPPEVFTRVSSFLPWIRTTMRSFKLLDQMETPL
The assay is described as follows: Inhibition of cathepsin G. The following applies: read-out: Ki app.

The target of a further assay is Prothrombin (Homo sapiens, UniProt P00734). The assay is described as follows: Inhibition of thrombin. As to conditions: read-out: Ki app.
Assay [3] addresses Vitamin K-dependent protein C (Homo sapiens, UniProt P04070). Put plainly: Inhibition of APC. As to conditions: read-out: Ki app.

Chain of Vitamin K-dependent protein C (P04070 43-197 limits assumed): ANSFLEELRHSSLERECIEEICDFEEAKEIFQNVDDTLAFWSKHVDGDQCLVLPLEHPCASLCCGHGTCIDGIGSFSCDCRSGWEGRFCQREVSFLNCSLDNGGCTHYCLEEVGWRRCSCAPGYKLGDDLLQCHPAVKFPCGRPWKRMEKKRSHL
Chain of Vitamin K-dependent protein C (P04070 212-461 limits assumed): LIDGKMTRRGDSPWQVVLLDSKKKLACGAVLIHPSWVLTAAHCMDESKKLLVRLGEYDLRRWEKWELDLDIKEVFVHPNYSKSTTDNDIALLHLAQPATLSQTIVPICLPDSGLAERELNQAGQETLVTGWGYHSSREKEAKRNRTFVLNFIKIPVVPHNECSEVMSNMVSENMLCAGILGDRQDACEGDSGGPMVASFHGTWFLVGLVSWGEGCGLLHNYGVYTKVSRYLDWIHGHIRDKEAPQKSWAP
Chain of Coagulation factor XI (P03951 19-387 limits assumed): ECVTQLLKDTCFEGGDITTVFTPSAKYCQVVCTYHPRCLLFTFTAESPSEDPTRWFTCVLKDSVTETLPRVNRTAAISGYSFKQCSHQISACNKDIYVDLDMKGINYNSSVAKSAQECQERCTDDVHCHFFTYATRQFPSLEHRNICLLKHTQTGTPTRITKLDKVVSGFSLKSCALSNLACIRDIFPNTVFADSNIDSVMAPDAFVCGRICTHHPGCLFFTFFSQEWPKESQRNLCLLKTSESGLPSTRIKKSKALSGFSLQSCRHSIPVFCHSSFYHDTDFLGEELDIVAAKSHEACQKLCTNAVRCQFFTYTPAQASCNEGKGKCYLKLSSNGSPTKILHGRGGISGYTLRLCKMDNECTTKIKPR
Chain of Coagulation factor XI (P03951 388-625 limits assumed): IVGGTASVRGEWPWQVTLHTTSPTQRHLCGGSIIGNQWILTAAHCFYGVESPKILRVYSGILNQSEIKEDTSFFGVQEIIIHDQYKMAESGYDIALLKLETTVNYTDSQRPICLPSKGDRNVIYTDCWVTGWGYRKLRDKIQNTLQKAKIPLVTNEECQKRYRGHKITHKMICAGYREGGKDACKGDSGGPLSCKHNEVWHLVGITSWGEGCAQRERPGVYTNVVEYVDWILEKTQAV
Chain of Plasminogen (P00747 97-580 limits assumed): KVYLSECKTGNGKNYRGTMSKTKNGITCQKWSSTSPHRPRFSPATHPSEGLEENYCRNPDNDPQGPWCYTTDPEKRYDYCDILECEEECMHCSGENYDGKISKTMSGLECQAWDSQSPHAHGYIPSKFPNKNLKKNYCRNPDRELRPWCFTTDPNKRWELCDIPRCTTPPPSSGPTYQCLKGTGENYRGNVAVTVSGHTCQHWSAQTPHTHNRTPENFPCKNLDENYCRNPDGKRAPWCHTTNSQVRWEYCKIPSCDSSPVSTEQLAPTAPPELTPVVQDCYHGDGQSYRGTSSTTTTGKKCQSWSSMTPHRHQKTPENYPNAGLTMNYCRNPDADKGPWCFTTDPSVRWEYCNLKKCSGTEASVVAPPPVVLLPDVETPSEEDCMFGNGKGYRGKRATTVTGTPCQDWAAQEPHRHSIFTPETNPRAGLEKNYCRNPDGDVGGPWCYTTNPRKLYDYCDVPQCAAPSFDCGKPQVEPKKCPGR
Chain of Plasminogen (P00747 581-810 limits assumed): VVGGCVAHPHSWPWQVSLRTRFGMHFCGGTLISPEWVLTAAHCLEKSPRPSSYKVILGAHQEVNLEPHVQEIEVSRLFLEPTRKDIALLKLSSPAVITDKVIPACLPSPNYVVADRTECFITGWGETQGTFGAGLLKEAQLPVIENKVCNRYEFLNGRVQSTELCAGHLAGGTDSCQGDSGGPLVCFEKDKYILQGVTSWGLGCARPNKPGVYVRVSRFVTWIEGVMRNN
Chain of Chymotrypsinogen B (P17538 34-164 limits assumed, other chains not shown): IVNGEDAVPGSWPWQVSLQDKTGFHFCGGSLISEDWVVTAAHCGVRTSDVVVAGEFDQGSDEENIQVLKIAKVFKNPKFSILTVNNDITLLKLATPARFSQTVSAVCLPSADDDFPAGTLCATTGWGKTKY
Chain of Chymotrypsinogen B (P17538 167-263 limits assumed, other chains not shown): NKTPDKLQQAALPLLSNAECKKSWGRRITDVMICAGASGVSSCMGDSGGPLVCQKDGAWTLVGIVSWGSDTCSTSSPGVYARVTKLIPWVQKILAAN
Chain of Coagulation factor X (P00742 41-179 limits assumed): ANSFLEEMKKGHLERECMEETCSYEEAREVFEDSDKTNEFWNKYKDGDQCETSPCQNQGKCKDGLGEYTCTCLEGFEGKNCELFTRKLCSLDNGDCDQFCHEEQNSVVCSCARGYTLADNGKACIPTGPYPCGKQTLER
Chain of Coagulation factor X (P00742 235-488 limits assumed): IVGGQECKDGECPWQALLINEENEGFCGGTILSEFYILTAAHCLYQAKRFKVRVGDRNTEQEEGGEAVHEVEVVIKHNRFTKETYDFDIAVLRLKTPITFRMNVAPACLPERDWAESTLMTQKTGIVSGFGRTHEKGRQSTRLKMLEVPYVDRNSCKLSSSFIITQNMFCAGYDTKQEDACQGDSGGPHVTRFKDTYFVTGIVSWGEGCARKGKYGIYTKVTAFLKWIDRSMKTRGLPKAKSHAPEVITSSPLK
Chain of Coagulation factor IX (P00740 47-191 limits assumed): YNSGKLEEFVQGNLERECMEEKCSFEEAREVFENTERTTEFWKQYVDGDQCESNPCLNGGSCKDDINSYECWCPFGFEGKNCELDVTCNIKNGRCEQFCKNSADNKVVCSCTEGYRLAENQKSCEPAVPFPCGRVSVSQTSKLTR
Chain of Coagulation factor IX (P00740 227-461 limits assumed): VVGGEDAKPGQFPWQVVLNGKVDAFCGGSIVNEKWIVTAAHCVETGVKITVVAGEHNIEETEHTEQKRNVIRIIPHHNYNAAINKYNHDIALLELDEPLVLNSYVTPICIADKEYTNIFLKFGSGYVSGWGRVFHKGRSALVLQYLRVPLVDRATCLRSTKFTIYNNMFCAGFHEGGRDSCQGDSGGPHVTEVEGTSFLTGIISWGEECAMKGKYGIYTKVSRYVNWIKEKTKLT
Chain of Plasma kallikrein (P03952 20-390 limits assumed): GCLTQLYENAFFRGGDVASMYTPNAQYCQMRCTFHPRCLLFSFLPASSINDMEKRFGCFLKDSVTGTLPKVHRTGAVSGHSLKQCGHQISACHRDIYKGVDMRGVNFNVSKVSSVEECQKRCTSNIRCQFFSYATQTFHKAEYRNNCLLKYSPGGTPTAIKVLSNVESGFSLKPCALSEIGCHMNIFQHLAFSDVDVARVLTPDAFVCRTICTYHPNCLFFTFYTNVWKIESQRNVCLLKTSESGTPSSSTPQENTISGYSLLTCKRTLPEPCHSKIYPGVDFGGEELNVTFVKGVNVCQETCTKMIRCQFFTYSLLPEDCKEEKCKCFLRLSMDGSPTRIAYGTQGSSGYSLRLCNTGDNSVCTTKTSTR
Chain of Plasma kallikrein (P03952 391-638 limits assumed): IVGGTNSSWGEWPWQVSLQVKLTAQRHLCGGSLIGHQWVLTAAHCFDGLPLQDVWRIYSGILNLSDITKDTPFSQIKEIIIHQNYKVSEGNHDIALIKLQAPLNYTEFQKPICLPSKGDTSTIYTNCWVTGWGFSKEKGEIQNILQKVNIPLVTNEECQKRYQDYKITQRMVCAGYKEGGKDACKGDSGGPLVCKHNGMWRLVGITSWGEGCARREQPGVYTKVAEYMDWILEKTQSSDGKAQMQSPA

As for `Cl.NCCCC[C@H](NC(=O)c1ccc(F)c(F)c1)C(=O)c1noc(Cc2ccc(OCCc3ccc(Cl)c(Cl)c3)cc2)n1`, on Trypsin, the Ki app amounted to 3.3 µM. The Ki is greater than 150 µM in [1]; greater than 150 µM at Coagulation factor X; 910 nM on Plasminogen; greater than 150 µM on Coagulation factor XI; greater than 150 µM on Coagulation factor IX; greater than 150 µM in assay [2]. Further, the Ki was 83 µM on Plasma kallikrein; greater than 150 µM on Granzyme K; greater than 150 µM at Coagulation factor VII; greater than 150 µM on Chymotrypsinogen B; greater than 150 µM on Chymase; greater than 150 µM on Cathepsin G. Further, the Ki (at Prothrombin; in assay [3]) was greater than 150 µM throughout.

For the origin of these results see ChEMBL document CHEMBL1138088, “Design and synthesis of selective keto-1,2,4-oxadiazole-based tryptase inhibitors” (Bioorg Med Chem Lett, 2006).
